We go through three molecules from patent publication US9833451B2 (priority 2007, dated 2017).

The Cmax is the highest concentration seen after dosing. As usually defined, the pIC50 is the negative decadic logarithm of the IC50, by convention in mol/L.

pIC50: −log10 of the molar value. Where a name gives a salt, the structure may show the parent alone. Read-outs that look alike come from different tables or passages of the source.

One data set in a line: clinical. Particulars: for Concentration equivalent to peak plasma concentration (Cmax): human plasma; for Cmax: human, in vivo. An excerpt:
The inhaled doses represent the expected systemic delivered dose and were estimated from the fine particle dose delivered ex-actuator.

For another data set, the system named is 5-HT1B. Put plainly: Radioligand receptor binding at concentrations equivalent to Cmax. The text has this:
(§1) “(h)” represents cloned human receptor subtypes.
(§2) Table 2 presents in vitro concentrations equivalent to Cmax.

In a further data set the target is 5-HT1D receptors (Homo sapiens, UniProt P28221). The data set is described as above. The following applies: following inhalation, compared with IV.
Sequence of 5-HT1D receptors (P28221 whole entry): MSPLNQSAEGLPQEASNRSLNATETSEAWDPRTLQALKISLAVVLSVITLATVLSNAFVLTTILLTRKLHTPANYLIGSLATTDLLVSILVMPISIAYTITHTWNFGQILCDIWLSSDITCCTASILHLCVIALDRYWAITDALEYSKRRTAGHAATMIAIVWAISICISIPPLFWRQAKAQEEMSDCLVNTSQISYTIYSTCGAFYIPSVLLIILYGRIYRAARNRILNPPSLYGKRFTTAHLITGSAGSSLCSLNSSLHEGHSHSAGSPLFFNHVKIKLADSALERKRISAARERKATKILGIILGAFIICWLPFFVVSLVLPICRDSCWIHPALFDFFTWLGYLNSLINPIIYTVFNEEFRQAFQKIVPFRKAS
Text: as §1, §2

Data set [1] addresses T1, 5-HT3 receptors (Homo sapiens, UniProt P46098). The data set is described as above. The following applies: all DHE delivery routes investigated, <20% classed as inactive.
Text: as §1, §2

The target in another data set is D2 receptor (Homo sapiens, UniProt P14416). The data set is described as above.
Sequence of D2 receptor (P14416 whole entry): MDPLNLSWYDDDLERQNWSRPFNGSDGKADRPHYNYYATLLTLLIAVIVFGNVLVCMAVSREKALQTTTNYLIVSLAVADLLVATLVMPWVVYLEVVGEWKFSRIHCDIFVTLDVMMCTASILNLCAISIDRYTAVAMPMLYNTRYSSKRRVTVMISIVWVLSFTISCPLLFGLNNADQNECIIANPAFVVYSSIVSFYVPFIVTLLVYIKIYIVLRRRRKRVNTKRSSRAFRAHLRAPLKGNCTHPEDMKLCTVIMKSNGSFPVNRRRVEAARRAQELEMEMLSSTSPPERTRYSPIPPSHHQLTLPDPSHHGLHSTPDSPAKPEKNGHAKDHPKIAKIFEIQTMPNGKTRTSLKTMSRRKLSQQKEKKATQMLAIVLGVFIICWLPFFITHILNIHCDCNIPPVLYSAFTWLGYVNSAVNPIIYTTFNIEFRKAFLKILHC
Text: “(h)” represents cloned human receptor subtypes and “NS” indicates non-specific binding.
as §2

The target of data set [2] is T1, 5-HT3 receptors. As to the kind of experiment: Functional assays at 5-HT3 receptors. In kind it is biochemical. The text has this:
5-HT3 receptors are known to be implicated in nausea. Antagonists at these receptors, such as ondansetron and granisetron prevent chemotherapy-induced nausea and vomiting.

A further data set concerns the target 5-HT1B receptors (Homo sapiens, UniProt P28222). Put plainly: Selective agonism at various concentrations of DHE (FIG. 5). In kind it is biochemical. Particulars: 5 μm control, 77.6 nM (IV Cmax), 6.25 nM (4 inhalations Cmax), 0.25 nM. An excerpt:
(§3) Agonists of 5-HT1B subtype receptors are known to be useful in the treatment of migraine and associated symptoms. 5-HT2B receptors are known to play a triggering role in the onset of migraine.

The target of another data set is 5-HT2B receptors (Homo sapiens, UniProt P41595). The data set is described as above. In kind it is biochemical. Particulars: orally-inhaled DHE concentrations (6.25 nM at Cmax of 4 inhalations).
Sequence of 5-HT2B receptors (P41595 whole entry): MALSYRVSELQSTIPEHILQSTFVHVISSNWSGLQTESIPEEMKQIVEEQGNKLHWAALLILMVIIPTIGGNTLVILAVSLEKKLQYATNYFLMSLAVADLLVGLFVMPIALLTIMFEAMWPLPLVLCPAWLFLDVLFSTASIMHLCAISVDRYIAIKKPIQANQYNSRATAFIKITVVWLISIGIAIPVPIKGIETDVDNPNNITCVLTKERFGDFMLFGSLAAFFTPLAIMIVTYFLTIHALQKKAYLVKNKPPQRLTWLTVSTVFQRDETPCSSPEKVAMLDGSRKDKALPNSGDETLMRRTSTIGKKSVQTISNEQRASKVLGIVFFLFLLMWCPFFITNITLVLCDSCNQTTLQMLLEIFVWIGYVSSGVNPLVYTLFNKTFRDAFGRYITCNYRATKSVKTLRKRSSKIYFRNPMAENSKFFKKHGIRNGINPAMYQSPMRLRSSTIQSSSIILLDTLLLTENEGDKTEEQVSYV
Text: as §3

Data set [3] in a line: Side effects in clinical study of IV versus inhaled DHE. In kind it is in vivo, human. The text has this: The inventors have discovered that these slightly delayed, lower peak pharmacokinetic profiles are associated with minimized side effects.
Data set [4] has as its system migraine pain in subjects. As to the kind of experiment: Relief from migraine pain after inhaled DHE (FIG. 1). In kind it is in vivo, human. The following applies: administration giving the two lower peak plasma profiles of FIG. 2.
Data set [5] concerns the target Serotonin receptor subtype 1A (Homo sapiens, UniProt P08908). Particulars: read-out: Affinity IC50; cited from earlier work.
Data set [6] addresses Serotonin receptor subtype 1B (Homo sapiens, UniProt P28222). The following applies: read-out: Affinity IC50; cited from earlier work.
Data set [7] deals with Serotonin receptor subtype 1D (Homo sapiens, UniProt P28221). Particulars: read-out: Affinity IC50; cited from earlier work.
Sequence of Serotonin receptor subtype 1D (P28221 whole entry): as the sequence (P28221 whole entry) above
Data set [8] concerns the target Serotonin receptor subtype 1E (Homo sapiens, UniProt P28566). Particulars: read-out: Affinity IC50; cited from earlier work.
Data set [9] addresses Serotonin receptor subtype 1F (Homo sapiens, UniProt P30939). Particulars: read-out: Affinity IC50; cited from earlier work.
The target of data set [10] is Serotonin receptor subtype 2C (Homo sapiens, UniProt P28335). Particulars: read-out: Affinity IC50; cited from earlier work.
Data set [11] has as its target Serotonin receptor subtype 3 (Homo sapiens, UniProt P46098). Particulars: read-out: Affinity IC50; cited from earlier work.
Data set [12] concerns the target Serotonin receptor subtype 5. Particulars: read-out: Affinity IC50; cited from earlier work.
In data set [13] the target is Adrenergic receptor subtype α1a (Homo sapiens, UniProt P35348). Particulars: read-out: Affinity IC50; cited from earlier work.
Sequence of Adrenergic receptor subtype α1a (P35348 whole entry): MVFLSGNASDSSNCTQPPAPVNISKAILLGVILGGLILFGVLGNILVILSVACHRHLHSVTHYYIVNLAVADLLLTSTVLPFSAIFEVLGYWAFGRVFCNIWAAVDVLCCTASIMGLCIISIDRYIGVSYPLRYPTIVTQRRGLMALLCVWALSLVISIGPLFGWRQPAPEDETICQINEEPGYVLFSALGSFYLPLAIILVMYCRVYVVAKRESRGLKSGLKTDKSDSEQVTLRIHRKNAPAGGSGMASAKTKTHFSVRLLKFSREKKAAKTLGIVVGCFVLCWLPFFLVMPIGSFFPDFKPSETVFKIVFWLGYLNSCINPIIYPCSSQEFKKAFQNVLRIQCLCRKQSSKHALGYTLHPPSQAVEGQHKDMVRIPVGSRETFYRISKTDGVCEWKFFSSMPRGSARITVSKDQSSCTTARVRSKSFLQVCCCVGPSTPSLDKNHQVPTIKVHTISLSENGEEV
Data set [14] concerns the target Adrenergic receptor subtype α1b (Homo sapiens, UniProt P35368). Particulars: read-out: Affinity IC50; cited from earlier work.
The target of data set [15] is Adrenergic receptor subtype β1 (Homo sapiens, UniProt P08588). The following applies: read-out: Affinity IC50; cited from earlier work.
The target in data set [16] is Adrenergic receptor subtype β3 (Homo sapiens, UniProt P13945). The following applies: read-out: Affinity IC50; cited from earlier work.
Sequence of Adrenergic receptor subtype β3 (P13945 whole entry): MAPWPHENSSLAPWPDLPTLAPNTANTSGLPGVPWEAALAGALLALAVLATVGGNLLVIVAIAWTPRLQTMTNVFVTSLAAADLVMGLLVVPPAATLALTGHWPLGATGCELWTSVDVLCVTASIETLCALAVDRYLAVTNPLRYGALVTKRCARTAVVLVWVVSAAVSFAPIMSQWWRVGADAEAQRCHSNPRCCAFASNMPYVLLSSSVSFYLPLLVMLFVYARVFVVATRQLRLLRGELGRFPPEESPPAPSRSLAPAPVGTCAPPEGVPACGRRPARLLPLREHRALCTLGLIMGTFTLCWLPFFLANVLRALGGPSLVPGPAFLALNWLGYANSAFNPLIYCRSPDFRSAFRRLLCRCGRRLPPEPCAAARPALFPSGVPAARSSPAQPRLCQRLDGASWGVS
Data set [17] addresses Dopaminergic receptor subtype D2 (Homo sapiens, UniProt P14416). Particulars: read-out: Affinity IC50; cited from earlier work.
Data set [18] addresses Dopaminergic receptor subtype D3 (Homo sapiens, UniProt P35462). The following applies: read-out: Affinity IC50; cited from earlier work.
The target in data set [19] is Dopaminergic receptor subtype D4 (Homo sapiens, UniProt P21917). Particulars: read-out: Affinity IC50; cited from earlier work.
Sequence of Dopaminergic receptor subtype D4 (P21917 whole entry): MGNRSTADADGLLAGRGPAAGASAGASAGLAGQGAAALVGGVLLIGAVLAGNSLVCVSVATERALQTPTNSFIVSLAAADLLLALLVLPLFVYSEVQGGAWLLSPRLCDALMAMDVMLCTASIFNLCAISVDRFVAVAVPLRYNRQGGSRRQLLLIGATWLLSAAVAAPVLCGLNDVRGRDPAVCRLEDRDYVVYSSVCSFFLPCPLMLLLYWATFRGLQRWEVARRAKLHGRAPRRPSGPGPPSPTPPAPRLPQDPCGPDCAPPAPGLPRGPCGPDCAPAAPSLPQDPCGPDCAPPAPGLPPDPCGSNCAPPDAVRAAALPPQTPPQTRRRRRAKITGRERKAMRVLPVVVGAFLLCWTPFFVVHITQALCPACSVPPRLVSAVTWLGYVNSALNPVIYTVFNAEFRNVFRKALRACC
The conditions of data set [20]: given subcutaneously at a concentration of only 1.5 mM; cited from earlier work.
In a further data set the test system is muscarinic (M) receptors. The following applies: cited from earlier work.
For data set [21] the following is noted: cited from earlier work.
For data set [22] the following is noted: pulmonary delivery; cited from earlier work.
Where [23] appears, read: after inhalable administration of DHE.

T1 sequence (P46098 24-478): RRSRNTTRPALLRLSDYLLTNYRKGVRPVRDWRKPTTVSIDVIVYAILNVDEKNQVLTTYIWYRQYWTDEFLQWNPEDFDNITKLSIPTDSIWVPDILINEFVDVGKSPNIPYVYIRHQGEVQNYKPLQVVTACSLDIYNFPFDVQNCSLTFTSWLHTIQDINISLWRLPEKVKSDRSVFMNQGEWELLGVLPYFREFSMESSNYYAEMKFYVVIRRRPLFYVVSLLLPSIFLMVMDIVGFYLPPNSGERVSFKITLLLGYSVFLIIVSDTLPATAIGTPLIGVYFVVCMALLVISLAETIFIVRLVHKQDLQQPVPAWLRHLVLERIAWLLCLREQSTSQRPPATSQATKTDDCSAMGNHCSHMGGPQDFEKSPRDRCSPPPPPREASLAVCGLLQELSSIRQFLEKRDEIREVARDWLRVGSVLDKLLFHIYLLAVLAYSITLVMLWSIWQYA
Sequence of Serotonin receptor subtype 3 (P46098 24-478): as above
Sequence of Serotonin receptor subtype 1E (P28566 whole entry): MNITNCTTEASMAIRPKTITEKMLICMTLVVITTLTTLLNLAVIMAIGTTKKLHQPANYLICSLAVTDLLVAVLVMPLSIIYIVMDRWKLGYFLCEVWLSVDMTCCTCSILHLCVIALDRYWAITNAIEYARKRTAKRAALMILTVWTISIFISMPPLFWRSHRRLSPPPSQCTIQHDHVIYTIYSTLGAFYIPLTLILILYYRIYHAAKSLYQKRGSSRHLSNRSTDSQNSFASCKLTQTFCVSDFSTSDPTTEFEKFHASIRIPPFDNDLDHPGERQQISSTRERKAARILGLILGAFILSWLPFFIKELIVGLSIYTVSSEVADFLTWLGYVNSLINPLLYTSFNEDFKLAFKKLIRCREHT
Sequence of Dopaminergic receptor subtype D2 (P14416 whole entry): as the sequence (P14416 whole entry) above
Sequence of Adrenergic receptor subtype α1b (P35368 whole entry): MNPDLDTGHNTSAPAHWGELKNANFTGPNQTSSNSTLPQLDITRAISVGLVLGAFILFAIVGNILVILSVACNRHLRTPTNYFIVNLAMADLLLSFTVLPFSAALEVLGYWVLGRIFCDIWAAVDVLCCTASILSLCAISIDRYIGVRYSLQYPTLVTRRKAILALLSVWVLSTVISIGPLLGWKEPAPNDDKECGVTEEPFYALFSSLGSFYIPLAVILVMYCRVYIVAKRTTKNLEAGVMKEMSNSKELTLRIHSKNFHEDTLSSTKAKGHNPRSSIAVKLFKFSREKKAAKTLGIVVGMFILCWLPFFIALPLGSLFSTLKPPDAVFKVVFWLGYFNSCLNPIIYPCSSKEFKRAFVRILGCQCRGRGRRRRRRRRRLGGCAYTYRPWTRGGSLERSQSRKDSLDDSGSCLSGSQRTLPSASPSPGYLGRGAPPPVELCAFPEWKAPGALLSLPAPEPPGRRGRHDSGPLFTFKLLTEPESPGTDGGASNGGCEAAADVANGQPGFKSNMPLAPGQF
Sequence of 5-HT1B receptors (P28222 whole entry): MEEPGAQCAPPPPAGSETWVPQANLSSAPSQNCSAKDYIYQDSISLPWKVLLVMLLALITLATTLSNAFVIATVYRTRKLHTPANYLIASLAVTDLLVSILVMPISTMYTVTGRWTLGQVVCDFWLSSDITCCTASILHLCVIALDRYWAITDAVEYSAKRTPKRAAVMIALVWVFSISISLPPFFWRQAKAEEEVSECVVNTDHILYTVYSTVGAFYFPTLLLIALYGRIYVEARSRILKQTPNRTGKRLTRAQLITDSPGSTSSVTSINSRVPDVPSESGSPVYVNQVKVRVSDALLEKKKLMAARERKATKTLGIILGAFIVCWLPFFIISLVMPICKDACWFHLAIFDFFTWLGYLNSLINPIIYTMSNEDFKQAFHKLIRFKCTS
Sequence of Serotonin receptor subtype 1B (P28222 whole entry): as above
Sequence of Dopaminergic receptor subtype D3 (P35462 whole entry): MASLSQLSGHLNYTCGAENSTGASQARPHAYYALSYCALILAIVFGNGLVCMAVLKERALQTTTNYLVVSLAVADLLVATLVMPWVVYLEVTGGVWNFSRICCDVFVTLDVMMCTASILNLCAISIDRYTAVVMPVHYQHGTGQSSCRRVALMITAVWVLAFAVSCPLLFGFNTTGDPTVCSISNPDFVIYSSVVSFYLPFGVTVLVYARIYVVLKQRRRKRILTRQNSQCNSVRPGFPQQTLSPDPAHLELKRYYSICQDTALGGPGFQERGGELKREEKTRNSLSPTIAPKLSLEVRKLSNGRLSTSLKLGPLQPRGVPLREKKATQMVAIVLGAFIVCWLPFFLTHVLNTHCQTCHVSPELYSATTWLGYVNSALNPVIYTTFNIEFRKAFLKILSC

Consider `CN1C[C@H](C(=O)N[C@]2(C)O[C@@]3(O)[C@@H]4CCC(O)N4C(=O)[C@H](Cc4ccccc4)N3C2=O)C[C@@H]2c3cccc4[nH]cc(c34)C[C@H]21` (stereo partly drawn) [8′-OH Dihydroergotamine], for which the “Concentration equivalent to peak plasma concentration (Cmax)” value came out at 58 pg/mL in “clinical” (after DHE 0.44 mg inhaled), 149 pg/mL in “clinical” (after DHE 0.88 mg inhaled) and 378 pg/mL in “clinical” (after DHE 1 mg IV (infusion over 3 minutes)). Also, the “Tmax of primary metabolite in circulating plasma” value in the data set “clinical” (setting [23]) is listed as “less than 90 minutes”. For the same molecule, in the data set “clinical” (setting [23]), the “peak plasma concentration of metabolite at Cmax” value is on record as “less than 1,000 pg/ml”.

As for `CN1C[C@H](C(=O)N[C@]2(C)O[C@@]3(O)[C@@H]4CCCN4C(=O)[C@H](Cc4ccccc4)N3C2=O)C[C@@H]2c3cccc4[nH]cc(c34)C[C@H]21` [DHE, dihydroergotamine mesylate], the “binding at 5-HT1B” value in the data set on 5-HT1B (Cmax following 0.88 mg inhaled dosing) and in the data set with 5-HT1B (Cmax following 1 mg intravenous dosing) was 100% in each case. Also, the “apparent binding at 5-HT1D receptors” value on 5-HT1D receptors is given as “lower than IV”. For the same molecule, on 5-HT3 receptors [1], the “binding at 5-HT3 receptors” value was below 20%. For the same molecule, the “receptor binding in D2 assays” value on D2 receptor (IV dose Cmax levels) is recorded as 50%. The “binding in D2 assays” value on D2 receptor (after inhaled dosing (Cmax levels)) is “no binding affinity”. For the same molecule, the “agonist or antagonist activity at 5-HT3 receptors” value on 5-HT3 receptors [2] is given as “lack of agonist or antagonist activity”. Moreover, the “agonism at 5-HT1B receptors” value on 5-HT1B receptors is on record as “maintained across all concentrations”. Further, the “agonism at 5-HT2B receptors” value at 5-HT2B receptors was “agonism is absent”. For the same molecule, in the data set “clinical” (all three methods of administration (FIG. 2)), the “time to rapid plasma levels” value is at most 20 min. The “difference in AUC” value in “clinical” (between 1 mg IV and 0.88 mg inhaled) was 1.2 fold. Besides, the Cmax in the data set “clinical” (inhaled or intranasal, 0.44 mg) was determined as 1.34 ng/mL; in the data set “clinical” (inhaled or intranasal, 0.88 mg), 4.29 ng/mL; in “clinical” (iv, 1 mg), 53.2 ng/mL. Also, the side effects observed entry in data set [3] (0.44 mg dose inhaled) is “no side effects were observed”; in data set [3] (0.88 mg dose inhaled), “only minor side effects”; in [3] (1.0 mg IV DHE), “significant side effects including nausea and emesis”. Also, the “Dizziness, subjects (%)” value in [3] (0.88 mg DHE Inhaled, n = 12) is 1 (8) (%); in data set [3] (1 mg DHE IV, n = 16), 7 (44) (%). Besides, the “Feeling hot, subjects (%)” value is recorded as 0 (%) in [3] (0.88 mg DHE Inhaled, n = 12) and 3 (19) (%) in data set [3] (1 mg DHE IV, n = 16). Moreover, the “Nausea, subjects (%)” value is reported as 1 (8) (%) in data set [3] (0.88 mg DHE Inhaled, n = 12) and 10 (63) (%) in data set [3] (1 mg DHE IV, n = 16). The “Paresthesia, subjects (%)” value is given as 0 (%) in data set [3] (0.88 mg DHE Inhaled, n = 12) and 5 (31) (%) in [3] (1 mg DHE IV, n = 16). Further, the “Vomiting, subjects (%)” value in [3] (0.88 mg DHE Inhaled, n = 12) is reported as 0 (%); in [3] (1 mg DHE IV, n = 16) it was 2 (13) (%). For the same molecule, the “Dizziness, number considered by investigator related to study drug (r)” value in data set [3] (1 mg DHE IV, n = 16) is on record as 7. Also, the “Feeling hot, number considered by investigator related to study drug (r)” value in [3] (1 mg DHE IV, n = 16) is recorded as 3. In data set [3] (1 mg DHE IV, n = 16), the “Nausea, number considered by investigator related to study drug (r)” value is recorded as 10. Further, in [3] (1 mg DHE IV, n = 16), the “Paresthesia, number considered by investigator related to study drug (r)” value is listed as 5. Also, in data set [3] (1 mg DHE IV, n = 16), the “Vomiting, number considered by investigator related to study drug (r)” value is 2. Further, the incidence of nausea came to 8% in data set [3] (inhaled) and 63% in [3] (intravenous administration). The “time to rapid pain relief” value in [4] was at most 10 min. The negative-log IC50 (pIC50) is 9.40 in data set [5]; 9.15 in [6]; 9.30 in [7]; 5.96 in data set [8]; 6.74 in [9]; 8.89 in data set [10]. Besides, the pIC50 is 5.43 in [11]; 7.22 in data set [12]; 8.18 in data set [13]; 8.08 in data set [14]; 5.51 in [15]; 6.57 in [16]. The pIC50 was 8.92 in [17], 8.19 in data set [18] and 8.06 in [19]. In addition, the “treated patients with nausea” value in data set [20] is listed as around 16%. The “binding activity at muscarinic (M) receptors” value with muscarinic (M) receptors is reported as “minimal binding activity”.

`CN1C[C@H](C(=O)N[C@]2(C)O[C@@]3(O)[C@@H]4CCCN4C(=O)[C@H](Cc4ccccc4)N3C2=O)C=C2c3cccc4[nH]cc(c34)C[C@H]21` [Ergotamine, ergotamine tartrate]: the figures for the “onset of therapeutic efficacy” value in [21] (intranasal) and in data set [21] (oral or sublingual delivery) were 45 min and 120 min, respectively. Moreover, the bioavailability result in [22] was “up to 92%”.
